US20240226115A1, “AXL INHIBITOR COMPOUNDS” (ARCUS BIOSCIENCES, INC., priority 2021, published 2024)

Key:
recombinant human TYRO3 = target: T1, recombinant human TYRO3 (Homo sapiens, UniProt Q06418); test: HTRF KinEASE-TK biochemical potency, TYRO3; conditions: 1 nM TYRO3, 700 μM ATP
T1 construct: purchased Invitrogen
T1 sequence (Q06418 41-890): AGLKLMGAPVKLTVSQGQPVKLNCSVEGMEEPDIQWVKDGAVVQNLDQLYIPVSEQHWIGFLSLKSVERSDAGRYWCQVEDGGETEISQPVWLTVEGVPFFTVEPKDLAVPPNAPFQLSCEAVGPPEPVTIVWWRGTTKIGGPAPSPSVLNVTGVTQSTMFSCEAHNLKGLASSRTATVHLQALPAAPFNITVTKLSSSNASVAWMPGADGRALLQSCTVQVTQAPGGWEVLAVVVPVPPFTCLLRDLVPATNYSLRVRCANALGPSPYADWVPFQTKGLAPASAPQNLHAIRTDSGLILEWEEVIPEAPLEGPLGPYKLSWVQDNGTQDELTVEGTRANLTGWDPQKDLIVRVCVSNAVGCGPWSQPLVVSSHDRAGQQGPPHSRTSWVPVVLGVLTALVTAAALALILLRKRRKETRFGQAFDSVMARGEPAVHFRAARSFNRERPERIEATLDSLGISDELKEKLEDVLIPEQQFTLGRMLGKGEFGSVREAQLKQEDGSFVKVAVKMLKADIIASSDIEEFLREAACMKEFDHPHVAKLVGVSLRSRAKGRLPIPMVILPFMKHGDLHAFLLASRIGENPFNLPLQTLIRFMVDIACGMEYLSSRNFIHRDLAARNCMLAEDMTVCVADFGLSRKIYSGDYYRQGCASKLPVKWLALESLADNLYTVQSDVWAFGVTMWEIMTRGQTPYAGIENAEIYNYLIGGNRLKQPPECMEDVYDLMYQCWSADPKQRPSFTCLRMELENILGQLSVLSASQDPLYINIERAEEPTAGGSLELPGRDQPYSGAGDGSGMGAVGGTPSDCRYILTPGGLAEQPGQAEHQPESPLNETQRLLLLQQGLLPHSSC
Method: (§1) Purified recombinant human AXL, TYRO3 and MER proteins were purchased from Invitrogen™. 10 nM AXL, 2 nM TYRO3 or MER were incubated with varying concentrations of compounds in 50 mM HEPES, pH 7.4, 10 mM MgCl2, 0.01% BSA, 1 mM DTT and 2% DMSO in a total volume of 20 μl in a 384-well microplate (Corning™ #3640) at RT for 1 h. The AXL, TYRO3 and MER enzymatic reaction was initiated by transferring 10 μl of enzyme and compound mixture into 10 μl of 1.6 μM TK Substrate-biotin (HTRF® KinEASE-TK kit, Cisbio) and 1400 μM ATP pre-incubated in 50 mM HEPES, pH 7.4, 10 mM MgCl2, 0.01% BSA, 1 mM DTT in a 384-well microplate (Corning™ #3640) at RT, giving the final reaction conditions: 5 nM AXL, 1 nM TYRO3 or MER, 800 nM TK Substrate-biotin and 700 μM ATP in 50 mM HEPES, pH 7.4, 10 mM MgCl2, 0.01% BSA, 1 mM DTT and 1% DMSO with varying concentrations of compounds. Following 2 h incubation at RT, the AXL, TYRO3 and MER enzymatic reaction was stopped by transfer of 10 μl of reaction into 10 μl of detection mix (400 nM Streptavidin-XL665, 200-fold dilution TK Antibody-Cryptate and detection buffer, HTRF® KinEASE-TK kit, Cisbio) in a white 384-well microplate (Perkin Elmer, OptiPlate 384). After 1 h incubation at RT, the plate was put into a plate reader (Evision) to read at 665/620 nm (acceptor/donor) for HTRF. The value of the DMSO blank (MIN inhibition=100% activity) was used as a negative control. The positive control was established by adding 5 μl of enzyme and DMSO mixture into 10 μl of detection mix followed by addition of 5 μl of TK Substrate-biotin and ATP mixture (MAX inhibition=0% activity). To calculate the percent activity, Equation 1 was used. Ratio665/620 is the value at a given compound concentration: […]

Axl = target: T2, Axl (Homo sapiens, UniProt P30530); test: HTRF KinEASE-TK biochemical potency, AXL; design: purchased Invitrogen; conditions: 5 nM AXL, 700 μM ATP
T2 sequence (P30530 26-894): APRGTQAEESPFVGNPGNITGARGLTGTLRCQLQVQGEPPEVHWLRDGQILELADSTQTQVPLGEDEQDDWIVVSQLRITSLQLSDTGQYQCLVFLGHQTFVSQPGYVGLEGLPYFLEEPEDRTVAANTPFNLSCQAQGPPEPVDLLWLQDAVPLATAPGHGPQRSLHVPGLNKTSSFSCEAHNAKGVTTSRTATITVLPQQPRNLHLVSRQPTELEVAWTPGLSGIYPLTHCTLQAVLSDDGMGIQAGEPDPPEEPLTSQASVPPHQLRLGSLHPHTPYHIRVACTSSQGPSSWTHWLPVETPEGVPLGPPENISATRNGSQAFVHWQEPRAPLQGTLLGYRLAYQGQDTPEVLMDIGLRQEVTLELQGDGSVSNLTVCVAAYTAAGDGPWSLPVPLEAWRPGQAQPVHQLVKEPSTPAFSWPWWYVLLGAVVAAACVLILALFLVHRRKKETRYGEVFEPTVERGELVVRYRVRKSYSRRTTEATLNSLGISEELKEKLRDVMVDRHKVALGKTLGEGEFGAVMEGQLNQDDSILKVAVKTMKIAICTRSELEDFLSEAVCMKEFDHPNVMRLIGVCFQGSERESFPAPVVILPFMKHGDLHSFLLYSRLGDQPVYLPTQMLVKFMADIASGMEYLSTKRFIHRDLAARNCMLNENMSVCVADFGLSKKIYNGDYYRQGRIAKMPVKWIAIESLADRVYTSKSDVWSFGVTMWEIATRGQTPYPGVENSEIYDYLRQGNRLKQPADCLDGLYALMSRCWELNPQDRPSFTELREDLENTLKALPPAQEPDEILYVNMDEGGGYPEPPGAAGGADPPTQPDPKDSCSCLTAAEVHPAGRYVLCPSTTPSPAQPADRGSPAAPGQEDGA
Method: as §1

Structure (SMILES)	IC50 (recombinant human TYRO3)	IC50 (Axl)
C[C@H]1CCCN1C1CCc2ccc(-c3cnc4[nH]nc(-c5ccc6c(c5)OCCNC6=O)c4c3)cc2CC1 (stereo partly drawn) [Example 43, 8-(5-{7-[(2S)-2-Methylpyrrolidin-1-yl]-6,7,8,9-tetrahydro-5H-benzo[7]annulen-2-yl}-1H-pyrazolo[3,4-b]pyridin-3-yl)-2,3,4,5-tetrahydro-1,4-benzoxazepin-5-one]	< 0.1 µM	< 0.1 µM
CC1(C)NS(=O)(=O)c2cc(-c3n[nH]c4ncc(-c5ccc6c(c5)CCC(N5CCCC5)CC6)cc34)ccc21 (stereo not drawn) [Example 32, 3,3-Dimethyl-6-{5-[7-(pyrrolidin-1-yl)-6,7,8,9-tetrahydro-5H-benzo[7]annulen-2-yl]-1H-pyrazolo[3,4-b]pyridin-3-yl}-2,3-dihydro-1λ^6,2-benzothiazole-1,1-dione]	< 0.1 µM	< 0.1 µM
C[C@H]1CCCN1C1Cc2ccc(-c3cnc4[nH]nc(-c5ccc6c(c5)OCC(C)(C)NC6=O)c4c3)cc2C1 (stereo partly drawn) [Example 39, 3,3-Dimethyl-8-(5-{2-[(2S)-2-methylpyrrolidin-1-yl]-2,3-dihydro-1H-inden-5-yl}-1H-pyrazolo[3,4-b]pyridin-3-yl)-2,3,4,5-tetrahydro-1,4-benzoxazepin-5-one]	< 0.1 µM	< 0.1 µM
Cc1c(-c2n[nH]c3ncc(-c4ccc5c(c4)CCC(N4CCC[C@H]4C)CC5)cc23)ccc2c1OCCNC2=O (stereo partly drawn) [Example 41, 9-Methyl-8-(5-{7-[(2R)-2-methylpyrrolidin-1-yl]-6,7,8,9-tetrahydro-5H-benzo[7]annulen-2-yl}-1H-pyrazolo[3,4-b]pyridin-3-yl)-2,3,4,5-tetrahydro-1,4-benzoxazepin-5-one]	< 0.1 µM	< 0.1 µM
O=C1NCCOc2cc(-c3n[nH]c4ncc(-c5ccc6c(c5)CCN(C5COC5)CC6)cc34)ccc21 [Example 11, 8-(5-(3-(Oxetan-3-yl)-2,3,4,5-tetrahydro-1H-benzo[d]azepin-7-yl)-1H-pyrazolo[3,4-b]pyridin-3-yl)-3,4-dihydrobenzo[f][1,4]oxazepin-5(2H)-one]	< 0.1 µM	< 0.1 µM
O=C1NCCOc2cc(-c3n[nH]c4ncc(-c5ccc6c(c5)CCC(NC5CCCC5)CC6)cc34)ccc21 (stereo not drawn) [Example 42, 8-{5-[7-(Cyclopentylamino)-6,7,8,9-tetrahydro-5H-benzo[7]annulen-2-yl]-1H-pyrazolo[3,4-b]pyridin-3-yl}-2,3,4,5-tetrahydro-1,4-benzoxazepin-5-one]	< 0.1 µM	< 0.1 µM
C[C@@H]1CCCN1C1CCc2ccc(-c3cnc4[nH]nc(-c5ccc6c(c5)C(=O)NC6(C)C)c4c3)cc2CC1 (stereo partly drawn) [Example 38, 3,3-Dimethyl-6-(5-{7-[(2R)-2-methylpyrrolidin-1-yl]-6,7,8,9-tetrahydro-5H-benzo[7]annulen-2-yl}-1H-pyrazolo[3,4-b]pyridin-3-yl)-2,3-dihydro-1H-isoindol-1-one]	< 0.1 µM	< 0.1 µM
CC1(C)NS(=O)(=O)c2cc(-c3n[nH]c4ncc(-c5ccc6c(c5)CCC(N5CCC[C@@H]5CO)CC6)cc34)ccc21 (stereo partly drawn) [Example 34, 6-(5-{7-[(2R)-2-(Hydroxymethyl)pyrrolidin-1-yl]-6,7,8,9-tetrahydro-5H-benzo[7]annulen-2-yl}-1H-pyrazolo[3,4-b]pyridin-3-yl)-3,3-dimethyl-2,3-dihydro-1λ^6,2-benzothiazole-1,1-dione]	< 0.1 µM	< 0.1 µM
C[C@@H]1CCCN1C1CCc2ccc(-c3cnc4[nH]nc(-c5cc6c(cc5F)C(=O)NCCO6)c4c3)cc2CC1 (stereo partly drawn) [Example 61, 7-Fluoro-8-(5-{7-[(2R)-2-methylpyrrolidin-1-yl]-6,7,8,9-tetrahydro-5H-benzo[7]annulen-2-yl}-1H-pyrazolo[3,4-b]pyridin-3-yl)-2,3,4,5-tetrahydro-1,4-benzoxazepin-5-one]	< 0.1 µM	< 0.1 µM
